Target: T1, PARP10 (Homo sapiens, UniProt Q53GL7)
T1 construct: made in house
T1 sequence (Q53GL7 1-1025): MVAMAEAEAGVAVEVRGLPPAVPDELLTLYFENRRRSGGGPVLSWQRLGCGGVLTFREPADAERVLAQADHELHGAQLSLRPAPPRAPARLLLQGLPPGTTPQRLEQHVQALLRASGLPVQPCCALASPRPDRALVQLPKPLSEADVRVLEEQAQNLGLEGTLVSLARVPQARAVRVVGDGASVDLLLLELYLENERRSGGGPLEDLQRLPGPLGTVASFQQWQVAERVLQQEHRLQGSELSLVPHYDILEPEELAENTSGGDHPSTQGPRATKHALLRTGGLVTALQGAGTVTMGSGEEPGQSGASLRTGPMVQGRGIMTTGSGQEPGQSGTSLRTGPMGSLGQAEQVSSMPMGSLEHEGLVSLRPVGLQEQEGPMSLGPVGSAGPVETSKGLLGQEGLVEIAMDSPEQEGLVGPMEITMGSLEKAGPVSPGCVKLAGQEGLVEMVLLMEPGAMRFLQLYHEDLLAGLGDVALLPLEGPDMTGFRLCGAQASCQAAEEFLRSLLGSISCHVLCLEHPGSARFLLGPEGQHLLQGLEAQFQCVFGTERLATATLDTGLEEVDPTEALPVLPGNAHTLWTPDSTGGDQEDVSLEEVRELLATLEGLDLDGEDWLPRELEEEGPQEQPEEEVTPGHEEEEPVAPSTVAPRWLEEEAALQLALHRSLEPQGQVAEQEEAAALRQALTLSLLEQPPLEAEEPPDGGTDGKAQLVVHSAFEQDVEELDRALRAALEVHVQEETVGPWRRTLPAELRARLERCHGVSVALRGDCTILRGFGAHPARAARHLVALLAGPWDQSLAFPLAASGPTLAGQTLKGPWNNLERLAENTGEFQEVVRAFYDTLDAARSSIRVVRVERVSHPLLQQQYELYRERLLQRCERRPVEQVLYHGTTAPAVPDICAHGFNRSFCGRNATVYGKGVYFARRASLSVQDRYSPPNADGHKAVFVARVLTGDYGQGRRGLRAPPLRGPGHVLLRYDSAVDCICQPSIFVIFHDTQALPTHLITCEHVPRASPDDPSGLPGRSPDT
Assay: Activity assay measuring NAD+ consumption, PARP10 (Tables 1-3)
Format: biochemical
Conditions: PARP10 IC50, Tables 1-3 assay

Compound: Nc1nnc2sc3cc(O)ccc3n12 [Compound 109, 3-Amino[1,2,4]triazolo[3,4-b][1,3]benzothiazol-7-ol]
- IC50: 220 nM
